Experimental data taken from ChEMBL document CHEMBL1153534, “Design and synthesis of androgen receptor antagonists with bulky side chains for overcoming antiandrogen resistance” (J Med Chem, 2009).
Activity calls are given as the source filed them. No cut-off for these calls is given here.

Assays:
Type in all cases: functional, cell-based
[1] = tested on: LNCaP; test: Cytotoxicity against human LNCAP cells after 72 hrs by MTT assay
[2] = Cytotoxicity against human C4-2B cells after 72 hrs by MTT assay; details: LNCaP C4-2B
[3] = tested on: CWR22R; test: Cytotoxicity against human 22Rv1 cells after 72 hrs by MTT assay; details: 22Rv1, 72 h
[4] = tested on: PC-3; test: Cytotoxicity against human PC3 cells after 72 hrs by MTT assay
[5] = tested on: PC-3; test: Cytotoxicity against human PC3 cells at 150 uM after 72 hrs by MTT assay
[6] = Cytotoxicity against human MDA PCa 2b cells after 72 hrs by MTT assay
[7] = Homo sapiens, PC-3, 72 h, read-out: IC50

| Compound | IC50 [1] | IC50 [2] | IC50 [3] | IC50 [4, 7] | Activity [5] | IC50 ([4]; pc-3) | IC50 [6] |
| --- | --- | --- | --- | --- | --- | --- | --- |
| COc1cc(/C=C/C(=O)CC(=O)/C=C/c2ccc(O)c(OC)c2)ccc1O [CURCUMIN] | 8.5 µM | 6.1 µM | 18.3 µM | 16.8 µM |  |  |  |
| COc1ccc(/C=C/C(O)=C/C(=O)/C=C/C2=C(C)CCCC2(C)C)cc1O | 25.9 µM | 23.1 µM |  | 38.3 µM |  |  |  |
| CC(=O)/C=C/C1=C(C)CCCC1(C)C [BETA-IONONE] | 151 µM |  |  |  | inactive | Not Active |  |
| CCOc1ccc(/C=C(\C(=O)/C=C/C2=C(C)CCCC2(C)C)C(=O)/C=C/c2ccc(OCC)c(OCC)c2)cc1OCC | 14.9 µM | 4.5 µM | 9.3 µM | 14.1 µM |  |  | 6.8 µM |
| CC1=C(/C=C/C(=O)/C(=C\c2ccc(O)cc2)C(=O)/C=C/c2ccc(O)cc2)C(C)(C)CCC1 | 4.5 µM | 4 µM | 4.7 µM | 6.7 µM |  |  | 4.7 µM |
| COc1cc(/C=C/C(=O)/C(=C/c2ccc3ccccc3n2)C(=O)/C=C/C2=C(C)CCCC2(C)C)ccc1O | 8.5 µM | 5.3 µM | 5.1 µM | 15.2 µM |  |  |  |
| COc1ccc(/C=C/C(O)=C/C(=O)/C=C/C2=C(C)CCCC2(C)C)cn1 | 25.1 µM |  |  | 52.2 µM |  |  |  |
| COc1cc(/C=C/C(O)=C/C(=O)/C=C/C2=C(C)CCCC2(C)C)ccc1O | 20.6 µM | 44.3 µM | 10.6 µM | 15.8 µM |  |  |  |
| CCn1c2ccccc2c2cc(/C=C(\C(=O)/C=C/C3=C(C)CCCC3(C)C)C(=O)/C=C/c3ccc(O)c(OC)c3)ccc21 | 2.3 µM | 2.3 µM | 2.4 µM | 7 µM |  |  | 8.1 µM |
| COc1cc(/C=C(\C(=O)/C=C/C2=C(C)CCCC2(C)C)C(=O)/C=C/c2cc(OC)c(O)c(OC)c2)cc(OC)c1O | 8.7 µM | 8.5 µM | 17.6 µM | 12.5 µM |  |  | 15.3 µM |
| COc1cc(/C=C/C(O)=C/C(=O)/C=C/C2=C(C)CCCC2(C)C)cc(OC)c1OC | 21.4 µM | 11.9 µM | 17.1 µM | > 50 µM |  |  |  |
| COc1cc(/C=C/C(O)=C/C(=O)/C=C/C2=C(C)CCCC2(C)C)cc(OC)c1O | 6.2 µM | 9.8 µM | 12.2 µM | 26.7 µM |  |  |  |
